The record followed here is patent US20230295157A1, “3-(1H-IMIDAZOL-2-YL)-2,3,8,8A-TETRAHYDROINDOLIZIN-5(1H)-ONE DERIVATIVES USEFUL AS FACTOR XIA INHIBITORS” (JANSSEN PHARMACEUTICA NV, priority 2020, published 2023).

One experiment deals with Factor XIa (Homo sapiens (Human), UniProt P03951). Kind of experiment: Factor XIa inhibition assay (FLINT) utilizing a fluorophore-quencher pair peptide substrate. In kind it is biochemical. To be noted: 30 min preincubation, kinetic reads over 30 min, read-out: FXIa Kin Inh IC50. The method, boiled down:
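FXIa ([…]) preincubated 30 min with compound (11-point 3-fold dilution, top 100 nM, 2% DMSO), then 15 μM quenched FXI Arg146-based peptide added; Tris pH 7.5, CaCl2, BSA, CHAPS. Fluorescence 485/520 nm read kinetically every 5 min over 30 min at RT; IC50 by 4-parameter fit.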

The next experiment concerns the target human plasma kallikrein (Homo sapiens (Human), UniProt P03952). The experiment can be described thus: Kallikrein inhibition assay (FLINT) utilizing a quenched AMC peptide substrate. It counts as biochemical. The following applies: 30 min preincubation, kinetic reads over 30 min, Z-Gly-Pro-Arg-AMC substrate 50 μM; read-out: Kallikrein Kin Inh IC50. The method, boiled down: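 Enzyme (2 nM final) pre-incubated 30 min at room temperature with compound (11-point, 3-fold, top 1 μM, 2% DMSO), then 50 μM Z-Gly-Pro-Arg-AMC added in Tris pH 7.5 buffer. Kinetic fluorescence 340/440 nm every 5 min over 30 min; IC50 from 4-parameter logistic fit.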

Where [1] appears, read: 5Fam-KLTRAETV-K5Tamra substrate 15 μM.
The mark [2] stands for this setting: 5Fam-[…]-K5Tamra substrate 15 μM.

Like-named read-outs stand apart in the source and are kept apart here.

Chain of Factor XIa (P03951 388-625): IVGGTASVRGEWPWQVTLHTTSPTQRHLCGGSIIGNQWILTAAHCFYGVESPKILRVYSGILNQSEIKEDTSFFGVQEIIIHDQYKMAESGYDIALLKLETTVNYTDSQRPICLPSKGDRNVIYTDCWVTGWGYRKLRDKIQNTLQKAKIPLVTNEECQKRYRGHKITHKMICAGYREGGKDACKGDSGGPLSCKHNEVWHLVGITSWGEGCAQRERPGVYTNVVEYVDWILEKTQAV
Chain of Factor XIa (P03951 19-387 partner): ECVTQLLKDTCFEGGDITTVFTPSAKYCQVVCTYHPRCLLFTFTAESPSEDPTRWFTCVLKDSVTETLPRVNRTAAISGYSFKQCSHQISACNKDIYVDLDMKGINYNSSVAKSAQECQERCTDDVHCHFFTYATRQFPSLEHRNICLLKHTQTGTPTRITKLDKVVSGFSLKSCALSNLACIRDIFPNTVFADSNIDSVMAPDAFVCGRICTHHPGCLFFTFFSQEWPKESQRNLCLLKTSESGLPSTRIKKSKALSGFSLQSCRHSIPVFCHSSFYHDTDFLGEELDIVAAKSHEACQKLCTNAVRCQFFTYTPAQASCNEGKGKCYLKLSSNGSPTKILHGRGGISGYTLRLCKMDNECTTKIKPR
Chain of human plasma kallikrein (P03952 391-638): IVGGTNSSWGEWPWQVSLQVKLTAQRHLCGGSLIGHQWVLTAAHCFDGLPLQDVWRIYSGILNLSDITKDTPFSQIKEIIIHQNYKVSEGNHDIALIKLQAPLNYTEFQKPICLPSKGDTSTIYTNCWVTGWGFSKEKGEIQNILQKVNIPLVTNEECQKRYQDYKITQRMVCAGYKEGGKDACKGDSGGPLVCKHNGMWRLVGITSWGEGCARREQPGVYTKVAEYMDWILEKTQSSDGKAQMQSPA
Chain of human plasma kallikrein (P03952 20-390 partner): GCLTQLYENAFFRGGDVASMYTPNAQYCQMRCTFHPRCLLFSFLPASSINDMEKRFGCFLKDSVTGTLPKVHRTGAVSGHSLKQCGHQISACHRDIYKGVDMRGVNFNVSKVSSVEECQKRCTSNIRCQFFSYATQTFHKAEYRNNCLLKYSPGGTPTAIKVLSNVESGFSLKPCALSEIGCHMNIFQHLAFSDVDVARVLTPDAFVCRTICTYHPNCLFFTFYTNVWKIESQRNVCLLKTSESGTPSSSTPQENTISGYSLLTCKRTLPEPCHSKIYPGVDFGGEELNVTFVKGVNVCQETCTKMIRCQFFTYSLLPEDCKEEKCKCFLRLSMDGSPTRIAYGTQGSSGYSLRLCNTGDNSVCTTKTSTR

In general, IC50 refers to the concentration at which inhibition is half-maximal. Regarding `[2H]c1cc(-c2cnc([C@@H]3CC[C@@H]4CC(c5c(-n6cnnn6)ccc(Cl)c5F)=CC(=O)N43)[nH]2)c(F)nc1N` [Example 147, (3S,8aR)-3-[5-(6-amino-5-deuterio-2-fluoro-3-pyridyl)-1H-imidazol-2-yl]-7-[3-chloro-2-fluoro-6-(tetrazol-1-yl)phenyl]-2,3,8,8a-tetrahydro-1H-indolizin-5-one], the half-inhibitory concentration (IC50) on Factor XIa (setting [1]) is 0.5 nM; on human plasma kallikrein it was 7.8 nM.

Take `[2H]c1cc(N)nc(F)c1-c1[nH]c([C@@H]2CC[C@@H]3CC(c4c(-n5cnnn5)ccc(Cl)c4F)=CC(=O)N32)nc1[2H]` [Example 148, (3S,8aR)-3-[5-(6-amino-4-deuterio-2-fluoro-3-pyridyl)-4-deuterio-1H-imidazol-2-yl]-7-[3-chloro-2-fluoro-6-(tetrazol-1-yl)phenyl]-2,3,8,8a-tetrahydro-1H-indolizin-5-one]: the IC50 on Factor XIa (setting [1]) was found to be 0.6 nM; at human plasma kallikrein it was 8.6 nM.

In the case of `[2H]c1nc([C@@H]2CC[C@@H]3CC(c4c(-n5cnnn5)ccc(Cl)c4F)=CC(=O)N32)[nH]c1-c1c(F)nc(N)c([2H])c1[2H]` [Example 149, (3S,8aR)-3-[5-(6-amino-4,5-dideuterio-2-fluoro-3-pyridyl)-4-deuterio-1H-imidazol-2-yl]-7-[3-chloro-2-fluoro-6-(tetrazol-1-yl)phenyl]-2,3,8,8a-tetrahydro-1H-indolizin-5-one], the figures for the half-maximal inhibitory concentration (IC50) at Factor XIa (setting [1]) and on human plasma kallikrein were 0.5 nM and 7.6 nM, respectively.

Consider `[2H]c1cc(N)nc(F)c1-c1cnc([C@@H]2CC[C@@H]3CC(c4c(-n5cnnn5)ccc(Cl)c4F)=CC(=O)N32)[nH]1` [Example 150, (3S,8aR)-3-[5-(6-amino-4-deuterio-2-fluoro-3-pyridyl)-1H-imidazol-2-yl]-7-[3-chloro-2-fluoro-6-(tetrazol-1-yl)phenyl]-2,3,8,8a-tetrahydro-1H-indolizin-5-one], for which the figures for the half-maximal inhibitory concentration (IC50) on Factor XIa (setting [1]) and on human plasma kallikrein were 0.6 nM and 8.6 nM, respectively.

For `[2H]c1c(N)nc(F)c(-c2cnc([C@@H]3CC[C@@H]4CC(c5c(-n6cnnn6)ccc(Cl)c5F)=CC(=O)N43)[nH]2)c1[2H]` [Example 151, (3S,8aR)-3-[5-(6-amino-4,5-dideuterio-2-fluoro-3-pyridyl)-1H-imidazol-2-yl]-7-[3-chloro-2-fluoro-6-(tetrazol-1-yl)phenyl]-2,3,8,8a-tetrahydro-1H-indolizin-5-one], the half-maximal inhibitory concentration (IC50) at Factor XIa (setting [1]) worked out at 0.6 nM; at human plasma kallikrein it was 8.9 nM.

For `[2H]c1cc(Cl)c(F)c(C2=CC(=O)N3[C@H](CC[C@H]3c3nc(-c4ccc(N)nc4F)c[nH]3)C2)c1-n1cnnn1` [Example 153, (3S,8aR)-3-[4-(6-amino-2-fluoro-3-pyridyl)-1H-imidazol-2-yl]-7-[3-chloro-5-deuterio-2-fluoro-6-(tetrazol-1-yl)phenyl]-2,3,8,8a-tetrahydro-1H-indolizin-5-one], the IC50 on Factor XIa (setting [1]) stood at 0.5 nM; at human plasma kallikrein, 8.1 nM.

For `COCCNc1nccc(-c2cnc([C@@H]3CCC4CC(c5c(-n6cnnn6)ccc(Cl)c5F)=CC(=O)N43)[nH]2)c1F` (stereo partly drawn) [Example 161, (3S)-7-(3-chloro-2-fluoro-6-(1H-tetrazol-1-yl)phenyl)-3-(5-(3-fluoro-2-((2-methoxyethyl)amino)pyridin-4-yl)-1H-imidazol-2-yl)-2,3,8,8a-tetrahydroindolizin-5(1H)-one], the half-inhibitory concentration (IC50) is 0.5 nM at Factor XIa (setting [1]) and 1.9 nM on human plasma kallikrein.

Turning to `CC(C)(O)COc1nccc(-c2cnc([C@@H]3CC[C@@H]4CC(c5c(-n6cnnn6)ccc(Cl)c5F)=CC(=O)N43)[nH]2)c1F` [Example 166, (3S,8aR)-7-[3-chloro-2-fluoro-6-(tetrazol-1-yl)phenyl]-3-[5-[3-fluoro-2-(2-hydroxy-2-methyl-propoxy)-4-pyridyl]-1H-imidazol-2-yl]-2,3,8,8a-tetrahydro-1H-indolizin-5-one], the half-maximal inhibitory concentration (IC50) amounted to 0.8 nM on Factor XIa (setting [1]) and 6.6 nM on human plasma kallikrein.

In the case of `Nc1ccc(-c2cnc([C@@H]3CC[C@@H]4CC(c5c(-n6cnnn6)ccc(Cl)c5F)=CC(=O)N43)[nH]2)c(C(F)(F)F)n1` [Example 167, (3S,8aR)-3-(5-(6-amino-2-(trifluoromethyl)pyridin-3-yl)-1H-imidazol-2-yl)-7-(3-chloro-2-fluoro-6-(1H-tetrazol-1-yl)phenyl)-2,3,8,8a-tetrahydroindolizin-5(1H)-one], the values for the IC50 on Factor XIa (setting [1]) and at human plasma kallikrein were 31 nM and 372 nM, respectively.

Take `O=C1C=C(c2c(-n3cnnn3)ccc(Cl)c2F)C[C@H]2CC[C@@H](c3nc(Cl)c(-c4ccnc([C@@H](O)C(F)(F)F)c4)[nH]3)N12` [Example 173, (3S,8aR)-7-(3-chloro-2-fluoro-6-(1H-tetrazol-1-yl)phenyl)-3-(4-chloro-5-(2-((R)-2,2,2-trifluoro-1-hydroxyethyl)pyridin-4-yl)-1H-imidazol-2-yl)-2,3,8,8a-tetrahydroindolizin-5(1H)-one]: the IC50 at Factor XIa (setting [1]) amounted to 1.7 nM; on human plasma kallikrein, 7 nM.

As to `N#CCc1nccc(-c2c[nH]c([C@@H]3CC[C@@H]4CC(c5c(-n6cnnn6)ccc(Cl)c5F)=CC(=O)N43)n2)c1F` [Example 176, 2-(4-(2-((3S,8aR)-7-(3-chloro-2-fluoro-6-(1H-tetrazol-1-yl)phenyl)-5-oxo-1,2,3,5,8,8a-hexahydroindolizin-3-yl)-1H-imidazol-4-yl)-3-fluoropyridin-2-yl)acetonitrile], the IC50 on Factor XIa (setting [1]) is 4 nM; on human plasma kallikrein, 28.5 nM.

With `COCc1nccc(-c2c[nH]c([C@@H]3CCC4CC(c5c(-n6cnnn6)ccc(Cl)c5F)=CC(=O)N43)n2)c1F` (stereo partly drawn) [Example 177, (3S)-7-(3-chloro-2-fluoro-6-(1H-tetrazol-1-yl)phenyl)-3-(4-(3-fluoro-2-(methoxymethyl)pyridin-4-yl)-1H-imidazol-2-yl)-2,3,8,8a-tetrahydroindolizin-5(1H)-one], the results for the concentration for half-maximal inhibition (IC50) on Factor XIa (setting [1]) and on human plasma kallikrein were 3.1 nM and 21.6 nM, respectively.

Regarding `O=C1C=C(c2c(-n3cnnn3)ccc(Cl)c2F)C[C@H]2CC[C@H](c3nc(Cl)c(-c4ccnc(C5(O)CC5)c4)[nH]3)N12` [Example 178, (3R,8aR)-7-(3-chloro-2-fluoro-6-(1H-tetrazol-1-yl)phenyl)-3-(4-chloro-5-(2-(1-hydroxycyclopropyl)pyridin-4-yl)-1H-imidazol-2-yl)-2,3,8,8a-tetrahydroindolizin-5(1H)-one], the concentration for half-maximal inhibition (IC50) came to 0.4 nM at Factor XIa (setting [1]) and 1.1 nM on human plasma kallikrein.

For `O=C1C=C(c2c(-n3cnnn3)ccc(Cl)c2F)C[C@H]2CC[C@H](c3nc(F)c(-c4ccnc(C5(O)CC5)c4)[nH]3)N12` [Example 179, (3R,8aR)-7-(3-chloro-2-fluoro-6-(1H-tetrazol-1-yl)phenyl)-3-(4-fluoro-5-(2-(1-hydroxycyclopropyl)pyridin-4-yl)-1H-imidazol-2-yl)-2,3,8,8a-tetrahydroindolizin-5(1H)-one], the half-inhibitory concentration (IC50) on Factor XIa (setting [1]) came out at 0.5 nM; at human plasma kallikrein, 1.4 nM.

As for `COCCNC(=O)c1nccc(-c2cnc([C@@H]3CC[C@@H]4CC(c5c(-n6cnnn6)ccc(Cl)c5F)=CC(=O)N43)[nH]2)c1F` [Example 180, 4-(2-((3S,8aR)-7-(3-chloro-2-fluoro-6-(1H-tetrazol-1-yl)phenyl)-5-oxo-1,2,3,5,8,8a-hexahydroindolizin-3-yl)-1H-imidazol-5-yl)-3-fluoro-N-(2-methoxyethyl)picolinamide], the figures for the IC50 at Factor XIa (setting [1]) and at human plasma kallikrein were 8.6 nM and 33.2 nM, respectively.

Turning to `NC(=O)c1nccc(-c2cnc([C@@H]3CC[C@@H]4CC(c5c(-n6cnnn6)ccc(Cl)c5F)=CC(=O)N43)[nH]2)c1F` [Example 181, 4-(2-((3S,8aR)-7-(3-chloro-2-fluoro-6-(1H-tetrazol-1-yl)phenyl)-5-oxo-1,2,3,5,8,8a-hexahydroindolizin-3-yl)-1H-imidazol-5-yl)-3-fluoropicolinamide], the IC50 on Factor XIa (setting [1]) was determined as 8.3 nM; at human plasma kallikrein it was 17.8 nM.

In the case of `O=C(O)c1nccc(-c2cnc([C@@H]3CC[C@@H]4CC(c5c(-n6cnnn6)ccc(Cl)c5F)=CC(=O)N43)[nH]2)c1F` [Example 182, 4-(2-((3S,8aR)-7-(3-chloro-2-fluoro-6-(1H-tetrazol-1-yl)phenyl)-5-oxo-1,2,3,5,8,8a-hexahydroindolizin-3-yl)-1H-imidazol-5-yl)-3-fluoropicolinic acid], the values for the IC50 on Factor XIa (setting [1]) and at human plasma kallikrein were 0.4 nM and 14.1 nM, respectively.

As to `O=C1C=C(c2c(-n3cnnn3)ccc(Cl)c2F)C[C@H]2CC[C@@H](c3ncc(-c4ccnc(OCC5(O)CC5)c4F)[nH]3)N12` [Example 183, (3S,8aR)-7-(3-chloro-2-fluoro-6-(1H-tetrazol-1-yl)phenyl)-3-(5-(3-fluoro-2-((1-hydroxycyclopropyl)methoxy)pyridin-4-yl)-1H-imidazol-2-yl)-2,3,8,8a-tetrahydroindolizin-5(1H)-one], the IC50 at Factor XIa (setting [2]) stood at 0.6 nM; on human plasma kallikrein, 3.8 nM.

Regarding `[2H]C([2H])(O)c1nccc(-c2nc([C@@H]3CC[C@@H]4CC(c5c(-n6cnnn6)ccc(Cl)c5F)=CC(=O)N43)[nH]c2Br)c1F` [Example 184, (3S,8aR)-3-(5-bromo-4-(3-fluoro-2-(hydroxymethyl-d2)pyridin-4-yl)-1H-imidazol-2-yl)-7-(3-choro-2-fluoro-6-(1H-tetrazol-1-yl)phenyl)-2,3,8,8a-tetrahydroindolizin-5(1H)-one], the IC50 worked out at 7.3 nM on Factor XIa (setting [2]) and 210 nM on human plasma kallikrein.
